According to PMC5938390, “Tachyplesin Causes Membrane Instability That Kills Multidrug-Resistant Bacteria by Inhibiting the 3-Ketoacyl Carrier Protein Reductase FabG” (Frontiers in Microbiology, 2018):
Positions of bridges follow the written chain, without caps; N, C: chain ends. Residues, ends and D or L forms follow the SMILES beside them.

Legend:
[1] = system: A549 (adenocarcinomic human alveolar basal epithelial cell line); conditions: concentration increased from 200 mg/L to 400 mg/L, XTT
Method: These studies were carried out as we previously reported with slight modifications and briefly introduced as follows ([Liu et al., 2017]). […] Cytotoxicity in different cell lines was assessed using the Cell Proliferation Kit II (XTT) (Roche), and cytotoxicity in hemocytes was evaluated by the increase in the absorbance at 540 nm after peptide incubation. Membrane rupture was indicated by the entrance of the DNA-binding fluorescent dye PI into MDR clinical isolates of P. aeruginosa strain 1409. Membrane translocation of N-terminal FITC-conjugated tachyplesin III (purity ≥ 95%, synthesized by GL Biochem Co., Ltd, Shanghai, China) into MDR clinical isolates of Acinetobacter baumannii strain 1408 were detected by confocal laser-scanning microscopy.
Cytotoxicity of tachyplesin III was tested by hemolysis and cell viability assays. (A) Tachyplesin III dissolved in 0.9% saline was added to mouse erythrocytes that were diluted with the same buffer. After 30 min of incubation at 37°C and then centrifugation at 1000 g for 15 min, supernatants were diluted 1:4 with 0.9% saline, and absorbance at 540 nm was tested. With 1% Triton X-100 (v/v) to determine 100% hemolysis and 0.9% saline as the negative control, the hemolysis rate was calculated as [(Absorbancesample^-Absorbancecontrol)/(Absorbance100%^-Absorbancecontrol)] × 100. Cytotoxicity was assessed using the Cell Proliferation Kit II (XTT) (Roche) for (B) L929 (mouse fibroblast cell line), (C) 293FT (human embryonic kidney cell line) and (D) A549 (adenocarcinomic human alveolar basal epithelial cell line) cells. Absorbance [A492-A690 nm] was used to quantify viable cells.

[2] = system: P. aeruginosa 1409; assay type: cell-based, Pseudomonas aeruginosa; conditions: Pa; Ta 16 μg/ml, 30 min, 37°C
Method: The Vitek 32 system (bioMerieux, France) and 16S rDNA sequencing were used to verify the clinical isolates A. baumannii 1408, P. aeruginosa 1409, Klebsiella pneumoniae 5 and E. coli 513, which were grown overnight in Luria-Bertani (LB) medium at 37°C with constant shaking at 220 rpm to reach the middle of their logarithmic growth phase. […] After the addition of 2 volumes of RNAprotect Bacteria Reagent (QIAGEN) to stabilized RNA, samples were vortexed for 5 s, incubated for 5 min at room temperature (15–25°C) and collected by centrifugation at 4°C for 5 min at 4000 g.
RNA isolation and sequencing were performed by Novogene Bioinformatics Technology Co., Ltd. (Beijing, China) as previously described ([Liu B. et al., 2014]). Clean reads were mapped to the corresponding bacterial genomes using Bowtie 2 software ([Langmead and Salzberg, 2012]). Gene expression was calculated using the FPKM (expected number of fragments per kilobase of transcript sequence per millions of base pairs sequenced) method with HTSeq software (union model) ([Anders et al., 2015]). Differentially expressed genes were selected based on the DESeq R package with Padj values < 0.05 ([Anders and Huber, 2010]). KEGG pathway analysis was performed using KOBAS (2.0), and the corrected p value cut-off was set at 0.05 ([Li et al., 2015]).

[3] = target: T1, FabG from E. coli (Escherichia coli, UniProt P0AEK2); test: Surface plasmon resonance binding; conditions: tachyplesin III on CM5 chip, FabG 1.25-10 μg/mL injected, HBS-N buffer
T1 construct: His tag (N); made in house; host or cells: E. coli BL21 DE3 (vector pET28a)
T1 sequence (P0AEK2 1-244): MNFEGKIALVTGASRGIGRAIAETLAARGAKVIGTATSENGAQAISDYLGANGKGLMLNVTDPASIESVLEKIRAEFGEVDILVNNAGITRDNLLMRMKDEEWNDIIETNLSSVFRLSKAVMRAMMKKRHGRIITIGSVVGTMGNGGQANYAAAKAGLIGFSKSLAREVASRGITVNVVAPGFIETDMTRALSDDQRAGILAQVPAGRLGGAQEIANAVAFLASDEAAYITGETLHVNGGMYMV
Method: (§1) N-terminal His-tagged FabG from E. coli and C-terminal His-tagged FabG from Staphylococcus aureus were cloned into the NcoI and XhoI cloning sites of the vector pET28a, expressed in BL21 DE3 E. coli and further purified with Ni resin ([Kristan et al., 2009]; [Srinivas and Cronan, 2017]). The binding interaction between tachyplesin III and FabG was analyzed by surface plasmon resonance (SPR) with a Biocore 3000 (Biocore, Piscataway, NJ, United States). Briefly, tachyplesin III was adsorbed onto a CM5 sensor chip using an amine-coupling kit (GE Healthcare, Little Chalfont, United Kingdom) to obtain approximately 1000 resonance units. […] The binding affinity of FabG for tachyplesin III was determined by BIAevaluation 3.0 software (Biacore) with a 1:1 Langmuir binding model for the kinetic calculation ([Wei et al., 2013]).
(§2) FIGURE 7 Tachyplesin III binding with FabG inhibits its enzyme activities in vitro, probably by blocking the active site. Binding interactions between tachyplesin III and FabG from E. coli (A) or from S. aureus (E) were analyzed by surface plasmon resonance (SPR) with a Biocore 3000 (Biocore, Piscataway, NJ, United States). […] Statistical significance was analyzed by one-way ANOVA followed by the Newman–Keuls multiple-comparisons test, ^∗∗p < 0.01, ^∗p < 0.05.

[4] = target: T2, FabG from S. aureus (Staphylococcus aureus, UniProt P0A0H9); test: Surface plasmon resonance binding; conditions: tachyplesin III on CM5 chip, FabG 1.25-10 μg/mL injected, HBS-N buffer
T2 construct: His tag (C); made in house; host or cells: E. coli BL21 DE3 (vector pET28a)
T2 sequence (P0A0H9 1-246): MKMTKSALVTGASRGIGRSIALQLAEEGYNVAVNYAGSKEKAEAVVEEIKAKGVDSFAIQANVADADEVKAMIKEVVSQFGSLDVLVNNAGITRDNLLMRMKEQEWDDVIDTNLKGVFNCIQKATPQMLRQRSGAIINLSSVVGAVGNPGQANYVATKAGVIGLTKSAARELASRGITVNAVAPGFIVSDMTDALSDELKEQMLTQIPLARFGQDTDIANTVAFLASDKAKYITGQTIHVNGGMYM
Method: as §1, §2

Question: What does the source list for `CC[C@H](C)[C@@H]1NC(=O)CNC(=O)[C@H](CCCNC(=N)N)NC(=O)[C@H](Cc2ccc(O)cc2)NC(=O)[C@@H]2CSSC[C@H](NC1=O)C(=O)N[C@@H](Cc1ccc(O)cc1)C(=O)N[C@@H](CCCNC(=N)N)C(=O)N[C@@H](CCCCN)C(=O)N[C@H](C(=O)N[C@@H](CCCNC(=N)N)C(N)=O)CSSC[C@H](NC(=O)[C@H](Cc1c[nH]c3ccccc13)NC(=O)[C@@H](N)CCCCN)C(=O)N[C@@H](Cc1ccccc1)C(=O)N[C@@H](CCCNC(=N)N)C(=O)N[C@@H](C(C)C)C(=O)N2` [tachyplesin III] (H-KWCFRVCYRGICYRKCR-NH2; disulfide 3-16, 7-12 (inferred); N-terminus and C-terminus assumed)?
Answer: cell viability [1]: Dramatic decreases in viability; Fold change after Ta treatment, gene PADK2_09275 (3-hydroxyacyl-CoA dehydrogenase) [2]: 2.04; Fold change after Ta treatment, gene PADK2_25405 (3-ketoacyl-acyl carrier protein reductase) [2]: 2.71; binding with FabG (SPR) [3]: could bind; binding with FabG (SPR) [4]: could bind
